Measured values: patent publication US6103888A, “Mammalian cationic proteins having lipopolysaccharide binding and anti-coagulant activity” (priority 1999, dated 2000)

Test system: ddY mice
Test: Tissue factor lethality model
Type: in vivo
Settings: for Survival (%): Tissue factor 1.0 mg/mouse IV
Protocol: Tissue factor lethality model. Reference tissue factor (simplastin, 1 mg/mouse) was IV injected into ddY mice (male, 20-week-old, 38-45 g) incubated with or without peptide.
^a Tissue factor (Simplastin, 10 mg/ml was mixed with equal volume of
synthetic peptide 100 μg/ml or 50 μg/ml and 0.2 ml of the mixture
injected IV. ddY mice (20 weeks, 38-45 gm).

With “RNIP: rabbit reactive nitrogen inhibitory protein, amino acids 135-171 of SEQ ID NO:4; purified from granulocytes (Tables 1-3) or synthetic (#197) (GLRKRLRKFRNKIKEKLKKIGQKIQGLLPKLAPRTDY)” the “Survival (%)” value (Peptide #197 5 μg/mouse) was 43%, the “Survival (%)” value (Peptide #197 10 μg/mouse, p < 0.05 vs tissue factor control) was 57% and the reduction of mortality (tissue factor IV (Simplastin, 1 mg/mouse)) was 57%.
